We go through seven compounds from ChEMBL document CHEMBL1151691, “Structure and biological activity of novel FN analogs as flowering inducers” (Bioorg Med Chem, 2008).

Structures are written as SMILES. The source made the active and inactive calls. No cut-off for these calls is given here.

The test system of the experiment is Lemna aequinoctialis. The experiment is described as follows: Induction of flowering in Lemna paucicostata 151 after 10 days. The class given is functional, organism-based.
As for `CCCCC[C@@H]1[C@H](CC(=O)C(O)CCCCCCCC(=O)O)O[C@]2(O)CC13C(=CC2=O)NC[C@@H]3O` (some centres not stated), the result was Active.
In the case of `CC/C=C\C[C@@H]1[C@H](CC(=O)[C@H](O)CCCCCCCC(=O)O)O[C@]2(O)CC13C(=CC2=O)N(C)C[C@@H]3O`, the outcome was Active.
Take `CC/C=C\C[C@@H]1[C@H](CC(=O)[C@H](O)CCCCCCCC(=O)OC)O[C@]2(O)CC13C(=CC2=O)NC[C@@H]3O`: the result was Active.
For `CCCCC[C@@H]1[C@H](CC(=O)CCCCCCCCC(=O)O)O[C@]2(O)CC13C(=CC2=O)NC[C@@H]3O`, the outcome was inactive.
With `CC/C=C\C[C@@H]1[C@H](CC(=O)[C@@H](O)CCCCCCCC(=O)OC)O[C@]2(O)CC13C(=CC2=O)NC[C@@H]3O`, the result was Active.
On to `CC/C=C\C[C@@H]1[C@H](CC(=O)[C@@H](O)CCCCCCCC(=O)O)O[C@]2(O)CC13C(=CC2=O)N(C)C[C@@H]3O`, for which the result was Active.
Turning to `CC/C=C\C[C@@H]1[C@H](CC(=O)CCCCCCCCC(=O)O)O[C@]2(O)CC13C(=CC2=O)NC[C@@H]3O`, the outcome was Active.
